Measured values from ChEMBL document CHEMBL3102801, “Synthesis and antiproliferative activity of new derivatives containing the polycyclic system 5,7:7,13-dimethanopyrazolo[3,4-b]pyrazolo[3',4':2,3]azepino[4,5-f]azocine” (Eur J Med Chem, 2014).
Activity calls are given as the source filed them. No cut-off for these calls is given here.

Experiments:
HT-29 = experiment: Growth inhibition of human HT-29 cells after 48 hrs by sulforhodamine B assay; assay type: functional; conditions: HT-29, 48 h
NCI-H522 = experiment: Growth inhibition of human NCI-H522 cells after 48 hrs by sulforhodamine B assay; assay type: functional; conditions: NCI-H522, 48 h
[1] = Growth inhibition of human HOP92 cells after 48 hrs by sulforhodamine B assay; assay type: functional; conditions: HOP-92, 48 h
SR = experiment: Growth inhibition of human SR cells after 48 hrs by sulforhodamine B assay; assay type: functional
RPMI-8226 = experiment: Growth inhibition of human RPMI8226 cells after 48 hrs by sulforhodamine B assay; assay type: functional; conditions: RPMI-8226, 48 h
K562 = experiment: Growth inhibition of human K562 cells after 48 hrs by sulforhodamine B assay; assay type: functional; conditions: K562, 48 h
HL-60(TB) = experiment: Growth inhibition of human HL-60(TB) cells after 48 hrs by sulforhodamine B assay; assay type: functional; conditions: HL-60, 48 h
CCRF-CEM = experiment: Growth inhibition of human CCRF-CEM cells after 48 hrs by sulforhodamine B assay; assay type: functional
[2] = biological target: T1, Retinoblastoma-associated protein (Homo sapiens) (UniProt P06400); experiment: Inhibition of pRb p110 phosphorylation in human HCT116 cells at 5 to 10 uM after 48 hrs by Western blotting relative to unphosphorylated p105; assay type: cell-based; conditions: HCT-116
T1 sequence (whole entry): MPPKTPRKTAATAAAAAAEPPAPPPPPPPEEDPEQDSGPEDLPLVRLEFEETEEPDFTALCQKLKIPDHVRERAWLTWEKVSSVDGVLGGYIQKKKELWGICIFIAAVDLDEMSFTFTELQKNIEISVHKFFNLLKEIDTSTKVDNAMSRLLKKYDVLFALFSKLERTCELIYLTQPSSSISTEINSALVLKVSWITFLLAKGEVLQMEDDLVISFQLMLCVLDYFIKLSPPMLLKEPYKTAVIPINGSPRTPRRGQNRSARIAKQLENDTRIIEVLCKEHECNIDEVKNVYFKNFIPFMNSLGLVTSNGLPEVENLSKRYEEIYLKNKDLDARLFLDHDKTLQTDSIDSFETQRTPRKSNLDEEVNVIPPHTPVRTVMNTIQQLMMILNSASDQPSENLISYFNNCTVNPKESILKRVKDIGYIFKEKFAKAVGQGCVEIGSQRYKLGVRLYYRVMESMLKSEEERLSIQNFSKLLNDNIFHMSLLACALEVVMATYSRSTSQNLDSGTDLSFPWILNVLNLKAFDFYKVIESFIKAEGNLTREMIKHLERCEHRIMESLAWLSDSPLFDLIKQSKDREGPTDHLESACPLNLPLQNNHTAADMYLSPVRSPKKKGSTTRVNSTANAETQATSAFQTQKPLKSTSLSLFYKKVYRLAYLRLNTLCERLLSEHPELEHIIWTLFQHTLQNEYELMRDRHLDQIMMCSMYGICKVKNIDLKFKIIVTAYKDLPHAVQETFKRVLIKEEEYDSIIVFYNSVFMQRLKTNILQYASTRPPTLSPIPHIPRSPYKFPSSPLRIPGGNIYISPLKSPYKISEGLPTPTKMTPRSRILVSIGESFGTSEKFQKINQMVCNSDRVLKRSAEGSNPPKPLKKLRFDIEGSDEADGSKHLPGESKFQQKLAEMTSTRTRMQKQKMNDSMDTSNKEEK

[3] = biological target: T1, Retinoblastoma-associated protein (Homo sapiens); experiment: Inhibition of pRb p110 phosphorylation in human MDA-MB-231 cells at 5 to 10 uM after 48 hrs by Western blotting relative to unphosphorylated p105; assay type: cell-based
HCT-116 [4] = experiment: Cell cycle arrest in human HCT116 cells assessed as accumulation of G0-G1 phase at 10 uM after 48 hrs using propidium iodide staining by flow cytometric analysis (reference value: 45.7%); assay type: functional
HCT-116 [5] = experiment: Cell cycle arrest in human HCT116 cells assessed as accumulation of G0-G1 phase at 5 uM after 48 hrs using propidium iodide staining by flow cytometric analysis (reference value: 45.7%); assay type: functional
MDA-MB-231 [6] = experiment: Cell cycle arrest in human MDA-MB-231 cells assessed as accumulation of G2-M phase at 5 uM after 48 hrs using propidium iodide staining by flow cytometric analysis (reference value: 27.5%); assay type: functional
[7] = Cytotoxicity against human HuDe cells after 48 hrs by sulforhodamine B assay; assay type: cell-based
MDA-MB-468 = experiment: Growth inhibition of human MDA-MB-468 cells after 48 hrs by sulforhodamine B assay; assay type: functional; conditions: MDA-MB-468, 48 h
BT-549 = experiment: Growth inhibition of human BT549 cells after 48 hrs by sulforhodamine B assay; assay type: functional; conditions: BT-549, 48 h
MDA-MB-231 [8] = experiment: Growth inhibition of human MDA-MB-231 cells after 48 hrs by sulforhodamine B assay; assay type: functional; conditions: MDA-MB-231, 48 h
DU-145 = experiment: Growth inhibition of human DU145 cells after 48 hrs by sulforhodamine B assay; assay type: functional; conditions: DU-145, 48 h
SN12C = experiment: Growth inhibition of human SN12C cells after 48 hrs by sulforhodamine B assay; assay type: functional
[9] = Growth inhibition of human RXF393 cells after 48 hrs by sulforhodamine B assay; assay type: functional; conditions: RXF 393, 48 h
CAKI-1 = experiment: Growth inhibition of human CAKI-1 cells after 48 hrs by sulforhodamine B assay; assay type: functional; conditions: CAKI-1, 48 h
[10] = Growth inhibition of human NCI-ADR-RES cells after 48 hrs by sulforhodamine B assay; assay type: functional
OVCAR-8 = experiment: Growth inhibition of human OVCAR8 cells after 48 hrs by sulforhodamine B assay; assay type: functional; conditions: OVCAR-8, 48 h
[11] = Growth inhibition of human OVCAR5 cells after 48 hrs by sulforhodamine B assay; assay type: functional; conditions: OVCAR-5, 48 h
OVCAR-3 = experiment: Growth inhibition of human OVCAR3 cells after 48 hrs by sulforhodamine B assay; assay type: functional; conditions: OVCAR-3, 48 h
[12] = Growth inhibition of human UACC257 cells after 48 hrs by sulforhodamine B assay; assay type: functional; conditions: UACC-257, 48 h
UACC-62 = experiment: Growth inhibition of human UACC62 cells after 48 hrs by sulforhodamine B assay; assay type: functional; conditions: UACC-62, 48 h
SK-MEL-5 = experiment: Growth inhibition of human SK-MEL-5 cells after 48 hrs by sulforhodamine B assay; assay type: functional; conditions: SK-MEL-5, 48 h
SK-MEL-28 = experiment: Growth inhibition of human SK-MEL-28 cells after 48 hrs by sulforhodamine B assay; assay type: functional; conditions: SK-MEL-28, 48 h
Malme-3M = experiment: Growth inhibition of human MALME-3M cells after 48 hrs by sulforhodamine B assay; assay type: functional
LOX IMVI = experiment: Growth inhibition of human LOXIMVI cells after 48 hrs by sulforhodamine B assay; assay type: functional
SF-268 = experiment: Growth inhibition of human SF268 cells after 48 hrs by sulforhodamine B assay; assay type: functional; conditions: SF-268, 48 h
SW-620 = experiment: Growth inhibition of human SW620 cells after 48 hrs by sulforhodamine B assay; assay type: functional; conditions: SW-620, 48 h

SMILES: C=C1c2c(C)nn(-c3ccc(OC)cc3)c2N(C)C23CC1C1(C)c4c(C)nn(-c5ccc(OC)cc5)c4N(C)C(C)(CC12)C3 (stereo not drawn)
- GI50 (HT-29): 3.24 µM
- GI50 (NCI-H522): 2.77 µM
- GI50 [1]: 1.18 µM
- GI50 (SR): 3.16 µM
- GI50 (RPMI-8226): 1.87 µM
- GI50 (K562): 3.6 µM
- GI50 (HL-60(TB)): 2.54 µM
- GI50 (CCRF-CEM): 3.41 µM
- inhibition [2]: Active
- inhibition [3]: Active
- Activity (HCT-116 [4]): 63.8%
- Activity (HCT-116 [5]): 59%
- Activity (MDA-MB-231 [6]): 18.6%
- IC50 [7]: 76 µM
- GI50 (MDA-MB-468): 2.5 µM
- GI50 (BT-549): 3.1 µM
- GI50 (MDA-MB-231 [8]): 3.11 µM
- GI50 (DU-145): 4.38 µM
- GI50 (SN12C): 3.65 µM
- GI50 [9]: 1.9 µM
- GI50 (CAKI-1): 2.67 µM
- GI50 [10]: 4.04 µM
- GI50 (OVCAR-8): 3.4 µM
- GI50 [11]: 11.3 µM
- GI50 (OVCAR-3): 3.27 µM
- GI50 [12]: 2.68 µM
- GI50 (UACC-62): 2.86 µM
- GI50 (SK-MEL-5): 1.73 µM
- GI50 (SK-MEL-28): 5.86 µM
- GI50 (Malme-3M): 3.24 µM
- GI50 (LOX IMVI): 2.24 µM
- GI50 (SF-268): 3.63 µM
- GI50 (SW-620): 3.63 µM
